Each structure is given as a SMILES string.

In the experiment the target is T1, Induced myeloid leukemia cell differentiation protein Mcl-1 [171-327] (Homo sapiens, UniProt Q07820).
T1 construct: 171-327
T1 sequence (Q07820 171-327): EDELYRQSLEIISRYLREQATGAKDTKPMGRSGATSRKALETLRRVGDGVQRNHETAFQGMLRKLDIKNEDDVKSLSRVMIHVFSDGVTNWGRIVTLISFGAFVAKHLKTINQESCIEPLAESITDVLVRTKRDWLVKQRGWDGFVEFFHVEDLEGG
Kind of experiment: AlphaLISA Assay. Here is the method:
The AlphaLISA assay was performed in a 384-well Proxiplate in a total volume of […]. The reaction mixture contained 0.0625 nM 6× His-Mcl-1 (171-327), 0.0625 nM biotinylated-Bim peptide, 10 μg/mL AlphaLISA anti-6×His-AlphaLISA acceptor beads, 40 μg/mL AlphaScreen streptavidin donor beads, and serially diluted test compounds in the binding buffer (20 mM Hepes, pH 7.5 (Teknova H1035); 150 mM NaCl (Promega V4221); 0.002% Brij 35 (Thermo Scientific 20150); 1 mM Dithiothreitol (DTT) Solution (Affymetrix 70726); 0.01% BSA (BioLabs B9000S)). 1,000× test compounds were pre-spotted onto 384-well Proxiplate (Labcyte Echo) by Echo 555 Liquid Handler (Labcyte Inc., San Jose, Calif.) followed by incubation of 5 μl Mcl-1(171-327) for 1 hour. Then 5 μL Bim (51-76) was added and incubated for 2 hours. Five μL AlphaLISA anti-6His-AlphaLISA acceptor beads were then added for 1 hour followed by addition of 5 μL AlphaScreen streptavidin donor beads for 1 hour. The reaction plates were then read on an Envision multimode reader (PerkinElmer) using AlphaScreen settings.
(In general: Bead proximity is the source of the signal in Alpha formats.)
In general, IC50 refers to the concentration needed to halve the response being measured. A high value points to a need for much substance. With `CO[C@H]1/C=C/C[C@H](C)C[S@@](=O)(NC(=O)c2cc3n(c2F)CCOC3)=NC(=O)c2ccc3c(c2)N(C[C@@H]2CC[C@H]21)C[C@@]1(CCCc2cc(Cl)ccc21)CO3` [US10988451, Example 174], the IC50 turned out to be 0.153 nM. In other words, the sub-nanomolar range.

On to `C[C@@H]1[C@@H](C)C/C=C/[C@H](O)[C@@H]2CC[C@H]2CN2C[C@@]3(CCCc4cc(Cl)ccc43)COc3ccc(cc32)C(=O)N=[S@]1(=O)NC(=O)c1cc2n(c1)C[C@H](CN1CCN3CCOC[C@H]3C1)OC2` [US10988451, Example 229], for which half-maximal inhibition (IC50) was put at 0.03 nM.

The molecule `CO[C@H]1/C=C/C[C@H](C)C[S@@](=O)(NC(=O)C2CC(OC(F)F)C2)=NC(=O)c2ccc3c(c2)N(C[C@@H]2CC[C@H]21)C[C@@]1(CCCc2cc(Cl)ccc21)CO3` (stereo partly drawn) [US10988451, Example 431] came in with an IC50 of 0.121 nM.

For the origin of these results see BindingDB's records for patent US10988451 (Gilead Sciences, 2021).
